Test results as given in paper PMC7921117, “Structural characterization of the microbial enzyme urocanate reductase mediating imidazole propionate production” (Nature Communications, 2021).

Columns and labels:
UrdA′ (two-domain UrdA) [1] = target: T1, UrdA′ (two-domain UrdA) (Shewanella oneidensis, UniProt Q8CVD0); assay: X-ray structure ([…] Å); activity inhibition; conditions: ADP in the FAD-binding site; no urocanate bound, glycerol in substrate site
T1 construct: clamp and FAD domains, residues 130-582, C-terminal 6xHis kept, N-terminal FMN domain absent; E. coli TUNER(DE3) (mutants BL21(DE3)); mostly monomer

UrdA′ (two-domain UrdA) [2] = target: T1, UrdA′ (two-domain UrdA); assay: X-ray structure ([…] Å); assay type: binding; conditions: no substrate bound; sulfate in active site; FAD also in 6T87 and 6T88

T1 sequence (Q8CVD0 130-582): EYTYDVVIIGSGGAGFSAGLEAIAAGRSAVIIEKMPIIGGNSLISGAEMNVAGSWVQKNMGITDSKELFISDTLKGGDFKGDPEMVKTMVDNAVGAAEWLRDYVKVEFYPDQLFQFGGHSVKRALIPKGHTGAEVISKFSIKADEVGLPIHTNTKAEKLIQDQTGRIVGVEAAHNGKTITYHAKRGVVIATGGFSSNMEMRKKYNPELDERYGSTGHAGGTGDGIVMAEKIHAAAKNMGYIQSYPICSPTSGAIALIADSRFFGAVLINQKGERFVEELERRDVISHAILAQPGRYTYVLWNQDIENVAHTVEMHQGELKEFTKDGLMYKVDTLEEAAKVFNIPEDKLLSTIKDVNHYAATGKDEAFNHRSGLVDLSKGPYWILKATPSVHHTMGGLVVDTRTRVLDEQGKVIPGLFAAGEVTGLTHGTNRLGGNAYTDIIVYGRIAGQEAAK

In the case of `Nc1ncnc2c1ncn2[C@@H]1O[C@H](COP(=O)(O)OP(=O)(O)O)[C@@H](O)[C@H]1O` [ADP], the “X-ray structure (1.1 Å); activity inhibition” value (UrdA′ (two-domain UrdA) [1]) was “supported by the ADP-induced inhibition of UrdA′ activity”.
In the case of `Cc1cc2nc3c(=O)[nH]c(=O)nc-3n(C[C@H](O)[C@H](O)[C@H](O)COP(=O)(O)OP(=O)(O)OC[C@H]3O[C@@H](n4cnc5c(N)ncnc54)[C@H](O)[C@@H]3O)c2cc1C` [FAD], the “X-ray structure (2.56 Å)” value (UrdA′ (two-domain UrdA) [2]) was 6T86 for apo-FAD, 6T87 for uro-FAD, and 6T88 for imp-FAD.
